From US12085575B2, “Compositions and methods for detecting proteinopathies” (BOARD OF SUPERVISORS OF LOUISIANA STATE UNIVERSITY AND …, priority 2011, dated 2024)
Residues, ends and D or L forms follow the SMILES beside them. *: point of attachment. Cbz = O=C(OCc1ccccc1)*

Tests used:
[1] = system: Mfn2; assay: Mfn2 modification and degradation in A-T/LV shRNA cells treated with mitochondrial depolarizing agents; format: cell-based, human; settings: ISG15-silenced A-T cells; CCCP 25 uM with MG132 or Bafl 100 nM, 24 hr
Method: Immunoblotting Analysis of Mitochondrial Proteins—Mitochondria were isolated from A-T/LV control and ISG15 shRNA cells using the Miochondrial Isolation Kit (Thermo Scientific Company, 89874). The Dounce homogenization protocol described by the manufacturer was used to isolate mitochondria from cells. Mitochondrial pellets were resuspended in lysis buffer containing 50 mM Tris pH 7.5 and 4% (v/v) SDS. Samples were homogenized and boiled for 10 min. Lysates containing equal protein were then mixed with 6× Laemmli SDS sample buffer (3× final concentration). Samples were boiled again and mitochondrial proteins were analyzed by SDS-PAGE. Immunoblotting analyses using either anti-ISG15 (raised against human ISG15) (20), anti-ubiquitin (gift from Dr. Arthur Haas, at LSUHSC—New Orleans), or anti-mitofusin 2 (Abcam, ab88569) antibodies were carried out using the ECL Western procedure (Pierce, 34076) and the BioRad VersaDoc Imaging System (BioRad). Immunoblotting Analysis of HA Polyubiquitylated Proteins in Cells: Cells were transfected with HA-ubiquitin using the PolyFect transfection reagent (Qiagen, 301105). Twenty four hours after transfection, mitochondria were isolated as described above. Mitochondrial lysis, SDS-PAGE, and immunoblotting analysis to detect HA-ubiquitin conjugated proteins using anti-HA antibodies were carried out as described above. Immunoblotting Analysis of Mfn2 in Cells: Cells were lysed in lysis buffer containing 50 mM Tris-HCl, pH 7.5, 2% SDS, and protease inhibitor cocktail. Lysates were sonicated, boiled, and cleared by centrifugation. Lysates containing equal protein were then mixed with 6× Laemmli SDS sample buffer (3× final concentration). Samples were boiled again and proteins were separated by 15% SDS-PAGE. Immunoblotting analysis was carried out using anti-Mfn2 antibodies (Abcam) as described above. Intensity of the Mfn2 bands was quantitated using BioRad Quantity One software. Statistical analysis—Statistical analysis was carried out using GraphPad software.
Many outer mitochondrial membrane (OMM) proteins are ubiquitylated and degraded via the 26S proteasome prior to mitophagy in cells treated with the mitochondrial depolarizing agents (28,29). To test whether ISG15 inhibits polyubiquitylation of OMM proteins, we assessed the fate of Mfn2, an OMM protein and proteasome substrate, in A-T/LV-control and A-T/LV-ISG15-silenced cells treated with two different mitochondrial depolarizing agents, valinomycin and carbonylcyanide m-chlorophenylhydrazone (CCCP). Consistent with the literature reports (29,35,36), we observed a ladder of high molecular weight anti-Mfn2 cross-reactive bands above the 86 kDa Mfn2 protein band that is reminiscent of polyubiquitylation, in both ISG15-silenced and ISG15 overexpressing A-T cells (FIGS. 34 A and B, left panels). The endogenous level of these high molecular weight Mfn2 cross-reactive bands was remarkably higher in ISG15-silenced as compared to the ISG15-overexpressing A-T cells in the absence of any drugs (FIGS. 34A and B, first panels, compare lanes 1 and 4). […] In contrast, the level of these Mfn2 cross-reactive high molecular weight bands decreased under the same drug treatment conditions in ISG15-silenced A-T cells (FIGS. 34A and B, first panels, lanes 4-6, and the accompanying bar graph in the second panel for quantitation). […] The bar graphs in FIGS. 34A and B, third panels, show mean values of the ratio between free Mfn2 (86 kDa band) and actin proteins (±SEM) in CCCP-treated A-T/LV-control and ISG15 shRNA cells measured from eight independent experiments, and valinomycin-treated A-T/LV-control and ISG15 shRNA cells measured from three independent experiments respectively.

[2] = system: LC3; assay: UV-induced LC3 degradation in organotypic cerebellar brain slices; format: cell-based, mice
Method: In FIG. 19B, LC3 degradation in UV-treated A-T brain slices is shown. The same tissue lysates prepared from A-T and ATM+/− brains used in FIG. 17A were analyzed for LC3 and actin proteins. Intensity of the total LC3 and corresponding actin bands was quantitated using BioRad Quantity One software. The percent changes in LC3 amounts were calculated as a ratio between band intensities of LC3 (I and II) and actin (bar chart). In FIGS. 19A and 19B, the bar graphs have the following legends: bars 1: No drug and +Bafl controls; bars 2: +UV; and bars 3: +Bafl+UV.

[3] = system: polyubiquitylated proteins; assay: Camptothecin-induced degradation of polyubiquitylated proteins in A-T cells; format: cell-based, human; settings: CPT 10 μm with Bafl 1 nm, 24 hr
Method: To test the generality of this observation, the anticancer drug camptothecin (CPT), a genotoxic agent (37, 48-50), which is known to sensitize A-T cells (37), like UV, was used to induce degradation of polyubiquitylated proteins in A-T cells. In FIG. 8E, A-T cells were treated with camptothecin (CPT; 10 μm) in the presence or absence of Bafl (1 nm) for 24 hr. Ubiquitin conjugated proteins using anti-ubiquitin antibodies were detected as described herein for FIG. 8A. The experiment was repeated three times.

SMILES | free Mfn2 degradation in CCCP-treated cells [1] | aberrant autophagic flux (degradation) of autophagy substrates under genotoxic stress ([2]; A-T cerebellar brain slices) | UV-induced autophagic flux (LC3 degradation) ([2]; ATM+/− cerebellar slices) | CPT-mediated degradation of polyubiquitylated proteins [3]
CO/C1=C\C(C)=C\[C@@H](C)[C@@H](O)[C@@H](C)C/C(C)=C/C=C/[C@H](OC)[C@@H]([C@@H](C)[C@@H](O)[C@H](C)[C@@]2(O)C[C@@H](O)[C@H](C)[C@@H](C(C)C)O2)OC1=O [Bafilomycin A1] | not | resistant | protected | failed to protect
CC(C)C[C@@H](C=O)NC(=O)[C@H](CC(C)C)NC(=O)[C@H](CC(C)C)NC(=O)OCc1ccccc1 [MG132] (Cbz-Leu-Leu-Leu-aldehyde) | restored |  |  | 
